The values below come from patent US9284296B2, “Bipyridine sulfonamide derivatives for the treatment of neurodegenerative diseases or conditions” (AUBERGINE PHARMACEUTICALS LLC, priority 2010, dated 2016).

Structures are written as SMILES.

Type in all cases: cell-based
The test system of assay [1] is SH-SY5Y human neuroblastoma cells. Kind of assay: Protection against hydrogen peroxide-induced cell death. The following applies: for EC50: Homo sapiens, SH-SY5Y cells, 1 h preincubation, 100 μM hydrogen peroxide, 24 h, LDH readout of live cells. The method, then:
The aim of this assay is to determine the neuroprotective effect of the compounds when human neuroblastoma cells are exposed to the oxidative stress induced by hydrogen peroxide, which leads to cell death. Therefore the protective effect of the compounds was measured by monitoring cell survival using a suitable commercial kit (Cytotoxicity Detection Kit, Roche Diagnostics GmbH, Mannheim, Germany) based on the quantification of the lactate dehydrogenase activity obtained from lysates of the remaining live cells with a colorimetric assay yielding absorbance at 492 nm as the final readout.
SH-SY5Y human neuroblastoma cells were seeded into 96-well culture plate at a density of 10,000 cells/well. Cells were preincubated for one hour with different concentrations of the compound at a 1% (v/v) DMSO concentration in an equivolumetric mixture of Minimum Essential Medium (MEM) and Nutrient Mixture HAM F12 supplemented with 10% foetal bovine serum, 100 U/ml penicillin, 100 μg/ml streptomycin, 1 mM each of non-essential aminoacids (commercial preparation from GIBCO, Paisley, UK) and 2 mM L-glutamine. Hydrogen peroxide was then added to reach 100 μM and the incubation was extended for 24 h. Then the medium was removed and live cells, which remained attached to the bottom of the plate, were lysed by incubating them during 5 min with 50 μl of 1% (v/v) Triton X-100 in Krebs-Hepes buffer (10 mM Hepes pH7.3 with 145 mM NaCl, 5.5 mM KCl, 1 mM MgCl2, 2 mM CaCl2 and 1 mM glucose). This lysate was used to measure LDH activity using the commercial kit according to the manufacturer's instructions. In the culture plate several wells were included as a control of cell death, in these wells the cells were preincubated with 1% (v/v) DMSO before hydrogen peroxide addition. Likewise, several wells were included as control for full cell survival, in these wells the addition of H2O2 was omitted. The absorbance of each tested sample was normalized to that of the control wells, so that for every compound concentration the percentage of protective effect was calculated with the following equation:
[formula] where “S” is the absorbance of the sample being considered, “E” is the average absorbance of wells used as control of full cell survival and “B” is the average absorbance of wells used as control of cell death. The values obtained at every compound concentration were finally used to calculate the EC50 (i.e., the concentration causing 50% of protective effect) of the tested compound. For that purpose the data were fitted to a classical 4-parameters isotherm equation using the nonlinear regression function of GraphPad™ Prism 5.0 (GraphPad Software Inc.), such equation is described below:
[formula] where “L” is the lower asymptote of the theoretical sigmoidal curve, “H” is the higher asymptote, “C” is the concentration of compound and “n” is the Hill coefficient.

The subject of assay [2] is secretion of amyloid peptide β1-40 (Aβ1-40). Kind of assay: Inhibition of β-amyloid secretion (CHO7w cells stably transfected with human APP, ELISA). The following applies: CHO-7W, 24 h incubation, range stated for the listed compounds together. As to the method: The inhibition caused by the compounds on the secretion of amyloid peptide β1-40 (Aβ1-40) was determined by measuring the levels of this peptide in cell supernatants after incubating the cells with several concentrations of the tested compound. A CHO7w cell line, stably transfected with human amyloid precursor protein (APP), was used. Cells were dispensed in 96-well culture plates (5,000 cells/well) and grown in DMEM supplemented with 2% (v/v) foetal bovine serum, 100 U/ml penicillin, 100 μg/ml streptomycin, 2 mM L-glutamine and 200 μg/ml G418 in the presence of several concentrations of the tested compound which had been previously dissolved in DMSO (1% (v/v) DMSO final concentration). After a 24 h incubation the amount of Aβ1-40 secreted to the medium was measured with an ELISA-based commercial kit (Human Amyloid β-40 ELISA High Sensitivity Kit, Millipore, Billerica, Mass., USA) using absorbance at 450 nm as the final readout. In the culture plate several wells were included as a control for lack of Aβ1-40 secretion, in these wells the cells were incubated in the presence of 16% (v/v) DMSO to inhibit cell growth therefore abolishing Aβ1-40 secretion. Likewise, several wells were also included as a control for full Aβ1-40 secretion, in these wells the cells were grown in the presence of 1% (v/v) DMSO. The absorbance of each tested sample was normalized to that of the control wells, so that for every compound concentration the percentage of inhibition was calculated with the following equation:
[formula] where “S” is the absorbance of the sample being considered, “E” is the average absorbance of wells lacking Aβ1-40 secretion and “B” is the average absorbance of wells with full Aβ1-40 secretion. The inhibition values obtained at every compound concentration were fitted to a 4-parameters isotherm equation, as described above, to calculate the […] (i.e., the concentration causing 50% of inhibition of Ab1-40 secretion).

The subject of assay [3] is secretion of soluble amyloid precursor protein-α (sAPPα). The assay can be described thus: Stimulation of sAPPα secretion (CHO7w cells stably transfected with human APP, AlphaLISA). Particulars: for EC50 / Emax: Homo sapiens, CHO-7W, CHO7w cells, 24 h incubation, range stated for the listed compounds together; for Emax: read-out: maximum effect (sAPPα secretion). As to the method:
The effect of the compounds on the stimulation of the secretion of soluble amyloid precursor protein-α (sAPPα) was determined by measuring the levels of this protein in cell supernatants after incubating the cells with several concentrations of the tested compound. A CHO7w cell line, stably transfected with human APP, was used. Cells were dispensed in 96-well culture plates (5,000 cells/well) and grown in DMEM supplemented with 2% (v/v) foetal bovine serum, 100 U/ml penicillin, 100 μg/ml streptomycin, 2 mM L-glutamine and 200 μg/ml G418 in the presence of several concentrations of the tested compound which had been previously dissolved in DMSO (1% (v/v) DMSO final concentration). After 24 h of incubation 5 μl of the culture supernatants were withdrawn and their sAPPα. concentration was measured with a commercial kit (AlphaLISA® Amyloid Precursor Protein-α Secreted Research kit, PerkinElmer, Waltham, Mass., USA) following manufacturer's instructions. In the culture plate several wells were included as a control for background sAPPα secretion, in these wells the cells were incubated with 1% (v/v) DMSO. The results obtained for each tested sample were normalized by using the following equation:
[formula] where “S” is the sAPPα concentration of the sample being considered, “B” is the average sAPPα concentration of wells used for background secretion and “M” is the sAPPα concentration of wells yielding the highest value. These normalized values obtained at every compound concentration were finally used to calculate the EC50 of the tested compound fitting them to a 4-parameters isotherm equation as already described. The average EC50s ranges are reported in Table 4 together with the maximum observed effect (and the concentration at which this effect was reached), this latter value was calculated for each compound according to the following equation:
[formula] with “M” and “B” as defined above.

The molecule `COc1cc(CNS(=O)(=O)c2ccc(C(F)(F)F)cc2)nc(-c2ccccn2)c1` [Compound 4, N-(4-Methoxy-[2,2′]bipyridinyl-6-ylmethyl)-4-trifluoromethyl-benzenesulfonamide] displayed an EC50 in assay [1] of 2600 nM. Moreover, the 50% inhibitory concentration (IC50) in assay [2] was in the range of 300 to 42000 nM.

`COc1cc(CNS(=O)(=O)c2ccccc2)nc(-c2ccccn2)c1` [Compound 6, N-(4-Methoxy-[2,2′]bipyridinyl-6-ylmethyl)-benzenesulfonamide] registered a concentration for a half-maximal effect (EC50) in assay [1] of 1580 nM. Also, in assay [3], the 50% effective concentration (EC50) was in the range of 500 to 11000 nM and the Emax was in the range of 250 to 500%.

For `COc1cc(CNS(=O)(=O)c2cccs2)nc(-c2ccccn2)c1` [Compound 8], the response in assay [1] was half-maximal at 90 nM (EC50). Also, in assay [1] (comparison within Table 2), the “rank of activity among compounds assayed (protection against hydrogen peroxide)” value is “most active compound”. In addition, in assay [3], the EC50 fell in the range of 500 to 11000 nM and the Emax was 250 to 500%. Moreover, in assay [3] (comparison among tested compounds), the “rank of concentration at which maximum effect was reached (sAPPα secretion)” value was “maximum effect at the lowest concentration”.

In assay [1], `COc1cc(CNS(=O)(=O)c2ccc(C(C)=O)cc2)nc(-c2ccccn2)c1` [Compound 9] displayed an EC50 of 6100 nM. In addition, in assay [3], the concentration for a half-maximal effect (EC50) is 500 to 11000 nM and the Emax is 250 to 500%.

As to `COc1cc(CNS(=O)(=O)c2ccc(F)cc2)nc(-c2ccccn2)c1` [Compound 11, 4-Fluoro-N-(4-methoxy-[2,2′]bipyridinyl-6-ylmethyl)-benzenesulfonamide], the concentration giving a half-maximal response (EC50) is 1300 nM in assay [1] and 500 to 11000 nM in assay [3]. The Emax in assay [3] was 250 to 500%.

With `COc1cc(CNS(=O)(=O)c2cccc(F)c2)nc(-c2ccccn2)c1` [Compound 12, 3-Fluoro-N-(4-methoxy-[2,2′]bipyridinyl-6-ylmethyl)-benzenesulfonamide], a half-maximal response in assay [1] (EC50) required 1060 nM. Also, in assay [3], the concentration giving a half-maximal response (EC50) fell in the range of 500 to 11000 nM and the Emax was in the range of 250 to 500%.

Molecule `COc1cc(CNS(=O)(=O)c2ccc(C#N)cc2)nc(-c2ccccn2)c1` [Compound 13, 4-Cyano-N-(4-methoxy-[2,2′]bipyridinyl-6-ylmethyl)-benzenesulfonamide] gave an EC50 in assay [1] of 1500 nM. In assay [3], the EC50 was in the range of 500 to 11000 nM and the Emax is 250 to 500%.

With `COc1cc(CNS(=O)(=O)c2ccc(F)c(C#N)c2)nc(-c2ccccn2)c1` [Compound 14, 3-Cyano-4-fluoro-N-(4-methoxy-[2,2′]bipyridinyl-6-ylmethyl)-benzenesulfonamide], in assay [1], the EC50 worked out at 1600 nM. For the same molecule, in assay [3], the EC50 was 500 to 11000 nM and the Emax lay within 250 to 500%.

Consider `COc1cc(CNS(=O)(=O)c2ccc(Br)cc2)nc(-c2ccccn2)c1` [Compound 16, 4-Bromo-N-(4-methoxy-[2,2′]bipyridinyl-6-ylmethyl)-benzenesulfonamide], for which, in assay [1], a half-maximal response (EC50) required 3200 nM. In addition, in assay [3], the 50% effective concentration (EC50) fell in the range of 500 to 11000 nM and the Emax was 250 to 500%.

Take `COc1cc(CNS(=O)(=O)c2ccc(Br)s2)nc(-c2ccccn2)c1` [Compound 18, 5-Bromo-thiophene-2-sulfonic acid (4-methoxy-[2,2′]bipyridinyl-6-ylmethyl)-amide]: the EC50 in assay [1] is 1880 nM; in assay [3], 500 to 11000 nM. The Emax in assay [3] was 250 to 500%.

Turning to `COc1cc(CNS(=O)(=O)c2ccc(C)s2)nc(-c2ccccn2)c1` [Compound 24, 5-Methyl-thiophene-2-sulfonic acid (4-methoxy-[2,2′]bipyridinyl-6-ylmethyl)-amide], the concentration for a half-maximal effect (EC50) in assay [1] was 3460 nM. The molecule also gave an IC50 in assay [2] of 300 to 42000 nM.

In assay [1], `COc1cc(CN(S(=O)(=O)c2ccc(Cl)s2)S(=O)(=O)c2ccc(Cl)s2)nc(-c2ccccn2)c1` [Compound 26] had an EC50 of 4600 nM. Also, in assay [2], the half-maximal inhibitory concentration (IC50) lay in the range of 300 to 42000 nM.

For the molecule `COc1cc(CN(Cc2cc(OC)cc(-c3ccccn3)n2)S(=O)(=O)c2ccc(Cl)s2)nc(-c2ccccn2)c1` [Compound 27], the concentration giving a half-maximal response (EC50) in assay [1] stood at 3520 nM. The molecule further yielded an IC50 in assay [2] of 300 to 42000 nM.

`CCN(CC)CCOc1cc(CNS(=O)(=O)c2cccs2)nc(-c2ccccn2)c1` [Compound 28, Thiophene-2-sulfonic acid [4-(2-diethylamino-ethoxy)-[2,2′]bipyridinyl-6-ylmethyl]-amide] had an EC50 in assay [1] of 1160 nM. In assay [3], the half-maximal effective concentration (EC50) lay in the range of 500 to 11000 nM and the Emax lay within 250 to 500%.

Regarding `CCN(CC)CCOc1cc(CNS(=O)(=O)c2ccc(C)s2)nc(-c2ccccn2)c1` [Compound 32, 5-Methyl-thiophene-2-sulfonic acid [4-(2-diethylamino-ethoxy)-[2,2′]bipyridinyl-6-ylmethyl]-amide], the EC50 is 550 nM in assay [1] and 500 to 11000 nM in assay [3]. The Emax in assay [3] was in the range of 250 to 500%.

With `COc1cc(CNS(=O)(=O)c2ccc(-c3cnco3)s2)nc(-c2ccccn2)c1` [Compound 55], in assay [1], the EC50 came to 1300 nM. This molecule also had an IC50 in assay [2] of 300 to 42000 nM.

In assay [1], `COc1cc(CNS(=O)(=O)c2cccc(Cl)c2F)nc(-c2ccccn2)c1` [Compound 56] registered an EC50 of 1060 nM. Moreover, the 50% inhibitory concentration (IC50) in assay [2] is 300 to 42000 nM.

For `COc1cc(CNS(=O)(=O)CC(F)(F)F)nc(-c2ccccn2)c1` [Compound 82], in assay [1], a half-maximal effect (EC50) was put at 500 nM. In addition, the IC50 in assay [2] fell in the range of 300 to 42000 nM.

In assay [1], `COc1cc(CNS(=O)(=O)c2cc(Cl)ccc2Cl)nc(-c2ccccn2)c1` [Compound 100] had a half-maximal effective concentration (EC50) of 1040 nM. Moreover, the concentration for half-maximal inhibition (IC50) in assay [2] was 300 to 42000 nM.

In the case of `COc1cc(CNS(=O)(=O)c2sc(Cl)nc2Cl)nc(-c2ccccn2)c1` [Compound 101], the concentration for a half-maximal effect (EC50) in assay [1] is 230 nM. In addition, in assay [2], the concentration for half-maximal inhibition (IC50) was 300 to 42000 nM.

In assay [1], `COc1cc(CNS(=O)(=O)c2cnc(Cl)s2)nc(-c2ccccn2)c1` [Compound 106] gave a concentration for a half-maximal effect (EC50) of 630 nM. For the same molecule, the IC50 in assay [2] was 300 to 42000 nM.
